Measurements reported in ChEMBL document CHEMBL1201862, “PubChem BioAssay data set” (2004).
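Method: 48-hour compound exposure of cells in 96-well plates, five concentrations, linear interpolation of endpoints. GI50 is the concentration that inhibits growth by half.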 Activity calls are given as the source filed them. Rule as the data show it: active = GI50 up to about 1.1 µM and inactive = higher.

What was measured:
Experiment in all cases: growth of human tumour cells (NCI), 48 h
786-0 = system: 786-0
A549 = system: A549
ACHN = system: ACHN
CAKI-1 = system: CAKI-1
CCRF-CEM = system: CCRF-CEM
DLD-1 = system: DLD-1
DMS-114 = system: DMS-114
EKVX = system: EKVX
HCC 2998 = system: HCC 2998
HCT-116 = system: HCT-116
HCT-15 = system: HCT-15
HL-60 = system: HL-60
HOP-18 = system: HOP-18
HOP-62 = system: HOP-62
HOP-92 = system: HOP-92
HT-29 = system: HT-29
IGROV-1 = system: IGROV-1
K562 = system: K562
KM12 = system: KM12
LOX IMVI = system: LOX IMVI
LXFL 529 = system: LXFL 529
M14 = system: M14
M19-MEL = system: M19-MEL
MOLT-4 = system: MOLT-4
Malme-3M = system: Malme-3M
NCI-H226 = system: NCI-H226
NCI-H23 = system: NCI-H23
NCI-H460 = system: NCI-H460
NCI-H522 = system: NCI-H522
OVCAR-3 = system: OVCAR-3
OVCAR-4 = system: OVCAR-4
OVCAR-5 = system: OVCAR-5
OVCAR-8 = system: OVCAR-8
RPMI-8226 = system: RPMI-8226
RXF 393 = system: RXF 393
SF-268 = system: SF-268
SF-295 = system: SF-295
SF-539 = system: SF-539
SK-MEL-28 = system: SK-MEL-28
SK-MEL-2 = system: SK-MEL-2
SK-MEL-5 = system: SK-MEL-5
SK-OV-3 = system: SK-OV-3
SN12C = system: SN12C
SNB-19 = system: SNB-19
SNB-78 = system: SNB-78
SR = system: SR
SW-620 = system: SW-620
TK-10 = system: TK-10
U-251 = system: U-251
UACC-257 = system: UACC-257
UACC-62 = system: UACC-62
UO-31 = system: UO-31
XF498 = system: XF498
A498 = system: A498
COLO 205 = system: COLO 205
DMS-273 = system: DMS-273
KM-20L2 = system: KM-20L2
SNB-75 = system: SNB-75

Measured: GI50

COc1cc(/C=C/c2csnn2)cc(OC)c1OC
inactive: 786-0 > 100 µM | A549 > 100 µM | ACHN 78.3 µM | CAKI-1 > 100 µM | CCRF-CEM > 100 µM | DLD-1 > 100 µM | DMS-114 > 100 µM | EKVX 52.2 µM | HCC 2998 > 100 µM | HCT-116 > 100 µM | HL-60 > 100 µM | HOP-18 > 100 µM | HOP-62 > 100 µM | HOP-92 66.7 µM | HT-29 > 100 µM | IGROV-1 > 100 µM | K562 > 100 µM | KM12 > 100 µM | LOX IMVI > 100 µM | LXFL 529 > 100 µM | M14 > 100 µM | M19-MEL > 100 µM | MOLT-4 > 100 µM | Malme-3M > 100 µM | NCI-H226 > 100 µM | NCI-H23 > 100 µM | NCI-H460 > 100 µM | NCI-H522 > 100 µM | OVCAR-3 > 100 µM | OVCAR-4 > 100 µM | OVCAR-5 > 100 µM | OVCAR-8 > 100 µM | RPMI-8226 > 100 µM | RXF 393 > 100 µM | SF-268 67 µM | SF-295 > 100 µM | SF-539 > 100 µM | SK-MEL-28 > 100 µM | SK-MEL-2 > 100 µM | SK-MEL-5 > 100 µM | SK-OV-3 > 100 µM | SN12C > 100 µM | SNB-19 > 100 µM | SNB-78 > 100 µM | SR > 100 µM | SW-620 > 100 µM | TK-10 > 100 µM | U-251 > 100 µM | UACC-257 > 100 µM | UACC-62 > 100 µM | UO-31 > 100 µM | XF498 > 100 µM
> 100 µM: HCT-15

CCS[C@H]1NC(=O)C1[C@H](C)O[Si](C)(C)C(C)(C)C (some centres undefined)
inactive: 786-0 > 100 µM | A498 > 100 µM | A549 81.3 µM | ACHN > 100 µM | CAKI-1 74 µM | COLO 205 > 100 µM | DLD-1 > 100 µM | DMS-114 84.3 µM | DMS-273 97.7 µM | EKVX > 100 µM | HCT-116 86.1 µM | HOP-18 > 100 µM | HOP-62 > 100 µM | HOP-92 79.8 µM | HT-29 > 100 µM | IGROV-1 > 100 µM | K562 34.3 µM | KM-20L2 > 100 µM | KM12 > 100 µM | LOX IMVI 32.2 µM | M19-MEL > 100 µM | Malme-3M > 100 µM | NCI-H23 > 100 µM | NCI-H460 > 100 µM | OVCAR-3 > 100 µM | OVCAR-4 > 100 µM | OVCAR-5 75.5 µM | OVCAR-8 > 100 µM | RPMI-8226 31.6 µM | RXF 393 52.8 µM | SF-268 > 100 µM | SF-295 > 100 µM | SF-539 > 100 µM | SK-MEL-28 > 100 µM | SK-MEL-2 > 100 µM | SN12C > 100 µM | SNB-19 > 100 µM | SNB-75 > 100 µM | SNB-78 > 100 µM | SW-620 > 100 µM | TK-10 > 100 µM | U-251 > 100 µM | UACC-257 48 µM | UACC-62 > 100 µM | XF498 > 100 µM
> 100 µM: HCT-15
